Reference: PubChem BioAssay (NCI)
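Each compound was tested at five concentrations against cells in 96-well plates for 48 hours. At the TGI there is no net growth.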

Key:
Test in all cases: NCI-60 cell line screen, 48 h
[1] = system: HCT-15 colon
[2] = system: SNB-75 CNS
[3] = system: HT29 colon
[4] = system: NCI-H23 lung
[5] = system: SF-539 CNS
[6] = system: HCC-2998 colon
[7] = system: NCI-H460 lung
[8] = system: HCT-116 colon
[9] = system: EKVX NSCLC

## COc1ccc(CC2NC(=O)/C=C/CC(C(C)C3OC3c3ccccc3)OC(=O)C(CC(C)C)OC(=O)C(C)CNC2=O)cc1Cl (configuration not stated)
[1]
  TGI: > 0.1 µM
[2]
  TGI: > 0.1 µM
[3]
  TGI: 0.000108 µM
[4]
  TGI: > 0.1 µM
[5]
  TGI: 4.43e-05 µM
[6]
  TGI: 0.00259 µM
[7]
  TGI: 0.00696 µM
[8]
  TGI: > 0.1 µM

## Brc1ccc2[nH]cc(-c3nc(-c4c[nH]c5ccccc45)cs3)c2c1
[1]
  TGI: 6.89 µM
[2]
  TGI: 25.1 µM
[3]
  TGI: 3.56 µM
[9]
  TGI: 12.3 µM
[4]
  TGI: 8.84 µM
[5]
  TGI: 10.8 µM
[6]
  TGI: 4.17 µM
[7]
  TGI: 4.9 µM
[8]
  TGI: 7.15 µM

## O=[N+]([O-])c1ccc2nc(/C=C(\O)c3ccc(F)cc3)c(/C=C(\O)c3ccc(F)cc3)nc2c1
[1]
  TGI: > 100 µM
[2]
  TGI: 37.5 µM
[3]
  TGI: > 100 µM
[9]
  TGI: > 100 µM
[4]
  TGI: 77.7 µM
[5]
  TGI: 56.3 µM
[6]
  TGI: > 100 µM
[7]
  TGI: > 100 µM
[8]
  TGI: > 100 µM

## C1=C\CCCCN2C[C@H]3CCCC/C=C\CCCCN4CC[C@@H]([C@H](CCCCCC/1)C4)[C@H](C3)C2
[1]
  TGI: 3.27 µM
[2]
  TGI: 5.46 µM
[3]
  TGI: 5.1 µM
[9]
  TGI: 22.5 µM
[4]
  TGI: 18.9 µM
[5]
  TGI: 3.9 µM
[6]
  TGI: 2.01 µM
[7]
  TGI: 3.68 µM
[8]
  TGI: 4.41 µM

## COc1cc2c(c(OC)c1OC)-c1ccc(SC)cc1[C@H](OC(=O)c1ccccc1)CC2
[1]
  TGI: > 40.6 µM
[2]
  TGI: > 100 µM
[9]
  TGI: > 100 µM
[4]
  TGI: > 100 µM
[5]
  TGI: 0.0841 µM
[6]
  TGI: 11.7 µM
[7]
  TGI: > 100 µM
[8]
  TGI: 1.45 µM

## Cc1cccc(NC(=S)Nc2ccccc2Cl)n1
[1]
  TGI: > 100 µM
[2]
  TGI: 52.7 µM
[3]
  TGI: > 100 µM
[9]
  TGI: 67.8 µM
[5]
  TGI: > 100 µM
[7]
  TGI: > 100 µM
[8]
  TGI: > 100 µM

## Cc1cc2c(c(C=NCc3ccccc3)c1)OC1(C=C2)Oc2ccccc2C(=O)N1C (configuration not stated)
[1]
  TGI: 45.4 µM
[2]
  TGI: 75.8 µM
[3]
  TGI: 51.7 µM
[9]
  TGI: 57.6 µM
[4]
  TGI: 69.6 µM
[6]
  TGI: 57.4 µM
[7]
  TGI: 55.4 µM
[8]
  TGI: 61.6 µM

## Cc1ccc(N=C2C(=O)C3=C(OC(C)(C)CC3)c3ccccc32)cc1
[2]
  TGI: 2.51 µM
[3]
  TGI: 1.15 µM
[9]
  TGI: 3.35 µM
[4]
  TGI: 6.88 µM
[6]
  TGI: 3.36 µM
[7]
  TGI: 3.96 µM
[8]
  TGI: 1.05 µM

## CC[C@H]1OC([C@H](O)C/C=C\C#C[Si](C)(C)C)C/C=C\C[C@H]1O[Si](C)(C)C(C)(C)C (some centres not stated)
[1]
  TGI: > 100 µM
[2]
  TGI: > 100 µM
[3]
  TGI: > 100 µM
[9]
  TGI: > 100 µM
[4]
  TGI: > 100 µM
[6]
  TGI: > 100 µM
[7]
  TGI: > 100 µM
[8]
  TGI: > 100 µM

## CC(C)CCn1c(=O)c2c(=O)[nH][nH]c2c2ccccc21
[1]
  TGI: > 100 µM
[3]
  TGI: > 100 µM
[9]
  TGI: > 100 µM
[4]
  TGI: > 100 µM
[5]
  TGI: > 100 µM
[6]
  TGI: > 100 µM
[7]
  TGI: > 100 µM
[8]
  TGI: > 100 µM

## CN(CCc1ccc(N)cc1)[C@H]1CCCC[C@H]1N1CCCC1
[1]
  TGI: > 100 µM
[2]
  TGI: > 100 µM
[3]
  TGI: > 100 µM
[9]
  TGI: > 100 µM
[4]
  TGI: > 100 µM
[6]
  TGI: > 100 µM
[7]
  TGI: > 100 µM
[8]
  TGI: > 100 µM

## COC(=O)/C=c1/c2ccccc2n2nc3ccccc3c12
[1]
  TGI: > 100 µM
[3]
  TGI: > 100 µM
[9]
  TGI: > 100 µM
[4]
  TGI: > 100 µM
[5]
  TGI: > 100 µM
[6]
  TGI: > 100 µM
[7]
  TGI: > 100 µM
[8]
  TGI: > 100 µM
